Our source for the Ki values is BindingDB's records for doi:10.1021/jm980637h (Japan Energy, 1999).

By Ki is commonly meant a measure of affinity in units of concentration, obtained from inhibition or displacement.

The target in the assay is T1, Dimer of Gag-Pol polyprotein [489-587] (Human immunodeficiency virus 1, UniProt P12497).
T1 construct: 489-587
The experiment in a line: Protease Inhibition Assay. Particulars: pH 6; 37 °C. As for the experimental part:
Sensitivity of HIV-1 protease activity to protease inhibitors was determined by a peptide substrate cleavage assay. Substrates and cleavage fragments were separated by reverse-phase HPLC, detected by absorbance at 215 nm, and quantified by comparison with a synthetic product standard.

`CSC[C@H](NC(=O)COc1cccc2cnccc12)C(=O)N[C@@H](Cc1ccccc1)[C@H](O)C(=O)N1CSC(C)(C)[C@H]1C(=O)NC(C)(C)C` displayed a Ki of 0.088 nM.
With `CCc1c(O)cccc1C(=O)N[C@@H](Cc1ccccc1)[C@H](O)C(=O)N1CSC(C)(C)[C@H]1C(=O)NCc1ccccc1C` [(R)-N-(2-Methylbenzyl)-3-[(2S,3S)-3-(2-ethyl-3-hydroxybenzoyl)amino-2-hydroxy-4-phenylbutanoyl]-5,5-methyl-1,3-thiazolidine-4-carboxamide] the figure was 0.16 nM; with `CSC[C@H](NC(=O)COc1cccc2cnccc12)C(=O)N[C@@H](Cc1ccccc1)[C@H](O)C(=O)N1CSC[C@H]1C(=O)NC(C)(C)C` [Kynostatin 272], 0.74 nM.
